Source: article PMC7237647, “Synthesis, in vitro and in vivo evaluation of ^11C-O-methylated arylpiperazines as potential serotonin 1A (5-HT1A) receptor antagonist radiotracers” (EJNMMI Radiopharmacy and Chemistry, 2020)

What was measured:
[1] = biological target: T1, Alpha1D (Homo sapiens, UniProt P25100); assay: NIMH-PDSP radioligand binding assay, Alpha1D
T1 construct: NIMH-PDSP

[2] = biological target: DAT (Homo sapiens, UniProt Q01959); assay: NIMH-PDSP radioligand binding assay, DAT
Protocol: (§1) . Cross selectivity for biogenic amines, neurotransmitter receptors, and transporters were determined by radioligand binding assays through NIMH- PDSP using validated and established protocols ([NIMH-PDSP Assay Protocol Book Version III, March 2018]).

[3] = biological target: T2, 5-HT2A (Homo sapiens, UniProt P28223); parameters: method as in ref Fiorino et al. [2012]; Fiorino et al. [2016]; Fiorino et al. [2017]; conditions: previous preliminary pharmacological screening; ref Fiorino et al. [2012]; Fiorino et al. [2016]; Fiorino et al. [2017]; cited from earlier work
T2 construct: NIMH-PDSP
T2 sequence (P28223 whole entry, species assumed): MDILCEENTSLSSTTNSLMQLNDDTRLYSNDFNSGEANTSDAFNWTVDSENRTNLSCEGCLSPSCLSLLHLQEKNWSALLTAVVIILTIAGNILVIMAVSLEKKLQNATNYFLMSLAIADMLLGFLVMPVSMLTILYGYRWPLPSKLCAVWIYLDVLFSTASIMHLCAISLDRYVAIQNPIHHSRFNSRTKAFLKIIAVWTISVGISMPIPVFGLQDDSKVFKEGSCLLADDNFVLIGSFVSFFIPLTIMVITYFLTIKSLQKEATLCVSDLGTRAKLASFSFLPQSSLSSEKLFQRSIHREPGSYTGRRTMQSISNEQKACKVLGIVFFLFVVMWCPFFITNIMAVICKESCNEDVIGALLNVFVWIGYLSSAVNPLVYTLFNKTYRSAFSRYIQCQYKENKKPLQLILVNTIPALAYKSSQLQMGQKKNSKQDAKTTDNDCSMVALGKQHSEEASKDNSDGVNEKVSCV

[4] = biological target: CB1, CB2; assay: NIMH-PDSP radioligand binding assay, CB1, CB2
[5] = biological target: D1, D5; assay: NIMH-PDSP radioligand binding assay, D1, D5
[6] = biological target: T3, NOP (Homo sapiens, UniProt P41146); assay: NIMH-PDSP radioligand binding assay, NOP
T3 construct: NIMH-PDSP
T3 sequence (P41146 whole entry): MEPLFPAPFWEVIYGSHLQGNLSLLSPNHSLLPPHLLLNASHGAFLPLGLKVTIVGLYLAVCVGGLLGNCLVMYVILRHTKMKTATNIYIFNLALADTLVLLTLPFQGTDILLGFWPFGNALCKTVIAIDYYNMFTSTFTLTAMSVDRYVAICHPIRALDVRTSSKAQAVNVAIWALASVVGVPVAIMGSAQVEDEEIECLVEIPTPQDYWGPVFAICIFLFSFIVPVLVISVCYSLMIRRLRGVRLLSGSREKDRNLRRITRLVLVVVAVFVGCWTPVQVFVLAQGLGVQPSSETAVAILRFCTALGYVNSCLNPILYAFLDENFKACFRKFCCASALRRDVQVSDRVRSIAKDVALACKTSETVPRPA
Protocol: as §1

[7] = biological target: T4, D4R (Homo sapiens, UniProt P21917); assay: NIMH-PDSP radioligand binding assay, D4R
T4 construct: NIMH-PDSP
T4 sequence (P21917 1-419): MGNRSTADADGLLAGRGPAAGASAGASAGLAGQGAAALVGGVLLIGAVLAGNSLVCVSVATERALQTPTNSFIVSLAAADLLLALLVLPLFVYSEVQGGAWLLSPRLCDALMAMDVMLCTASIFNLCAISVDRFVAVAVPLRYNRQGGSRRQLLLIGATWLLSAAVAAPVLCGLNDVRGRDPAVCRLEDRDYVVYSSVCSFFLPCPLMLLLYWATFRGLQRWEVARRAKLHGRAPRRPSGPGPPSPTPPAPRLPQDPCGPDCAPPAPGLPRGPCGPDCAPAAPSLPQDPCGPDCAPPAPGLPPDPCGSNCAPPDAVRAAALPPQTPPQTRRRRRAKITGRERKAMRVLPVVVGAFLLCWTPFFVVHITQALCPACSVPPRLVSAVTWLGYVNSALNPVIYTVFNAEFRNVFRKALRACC
Protocol: as §1

[8] = biological target: NMDA; assay: NIMH-PDSP radioligand binding assay, NMDA
[9] = biological target: T5, 5-HT2C (Homo sapiens, UniProt P28335); assay: NIMH-PDSP radioligand binding assay, 5-HT2C
T5 construct: NIMH-PDSP
T5 sequence (P28335 33-458): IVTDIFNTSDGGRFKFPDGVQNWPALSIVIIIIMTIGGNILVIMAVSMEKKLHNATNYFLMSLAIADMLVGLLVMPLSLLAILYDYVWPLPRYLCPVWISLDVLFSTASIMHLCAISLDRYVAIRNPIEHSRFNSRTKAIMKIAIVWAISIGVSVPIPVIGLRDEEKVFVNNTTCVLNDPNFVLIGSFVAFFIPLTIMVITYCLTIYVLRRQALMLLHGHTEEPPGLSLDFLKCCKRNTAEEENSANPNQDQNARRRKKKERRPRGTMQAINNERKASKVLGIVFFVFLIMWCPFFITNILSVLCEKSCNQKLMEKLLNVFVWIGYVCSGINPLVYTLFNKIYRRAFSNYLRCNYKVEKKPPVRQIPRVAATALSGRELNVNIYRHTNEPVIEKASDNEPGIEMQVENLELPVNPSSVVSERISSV

[10] = biological target: SERT (Homo sapiens, UniProt P31645); assay: NIMH-PDSP radioligand binding assay, SERT
Protocol: as §1

[11] = biological target: T6, 5-HT1B (Homo sapiens, UniProt P28222); assay: NIMH-PDSP radioligand binding assay, 5-HT1B
T6 construct: NIMH-PDSP
T6 sequence (P28222 whole entry, species assumed): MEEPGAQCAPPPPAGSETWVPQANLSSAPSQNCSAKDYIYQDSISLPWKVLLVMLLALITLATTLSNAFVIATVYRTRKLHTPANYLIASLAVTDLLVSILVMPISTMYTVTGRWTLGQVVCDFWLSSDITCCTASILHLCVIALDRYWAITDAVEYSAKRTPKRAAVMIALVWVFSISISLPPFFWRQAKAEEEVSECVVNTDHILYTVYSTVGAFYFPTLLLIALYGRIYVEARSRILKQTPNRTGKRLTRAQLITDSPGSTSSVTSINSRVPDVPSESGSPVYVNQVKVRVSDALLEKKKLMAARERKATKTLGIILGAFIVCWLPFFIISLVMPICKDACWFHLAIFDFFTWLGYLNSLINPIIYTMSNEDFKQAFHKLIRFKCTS
Protocol: as §1

[12] = biological target: T7, 5-HT1D (Homo sapiens, UniProt P28221); assay: NIMH-PDSP radioligand binding assay, 5-HT1D
T7 construct: NIMH-PDSP
T7 sequence (P28221 whole entry, species assumed): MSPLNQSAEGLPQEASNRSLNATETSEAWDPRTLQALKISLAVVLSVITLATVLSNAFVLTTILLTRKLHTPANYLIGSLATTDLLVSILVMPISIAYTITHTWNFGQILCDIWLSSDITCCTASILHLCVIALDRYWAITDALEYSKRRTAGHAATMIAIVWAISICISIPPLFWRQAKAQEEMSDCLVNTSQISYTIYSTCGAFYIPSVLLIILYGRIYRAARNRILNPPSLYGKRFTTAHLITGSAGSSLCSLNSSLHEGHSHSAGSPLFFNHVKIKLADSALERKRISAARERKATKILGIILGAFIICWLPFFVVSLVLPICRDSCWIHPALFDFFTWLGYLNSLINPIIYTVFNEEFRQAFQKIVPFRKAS
Protocol: as §1

[13] = biological target: T8, Alpha2B (Homo sapiens, UniProt P18089); assay: NIMH-PDSP radioligand binding assay, Alpha2B
T8 construct: NIMH-PDSP

[14] = biological target: T9, Alpha1A (Homo sapiens, UniProt P35348); assay: NIMH-PDSP radioligand binding assay, Alpha1A; conditions: text b29 calls it α1-adrenergic receptors
T9 construct: NIMH-PDSP

[15] = biological target: Muscarinic receptors; assay: NIMH-PDSP radioligand binding assay, Muscarinic receptors
[16] = biological target: T10, 5-HT4 (Homo sapiens, UniProt Q13639); assay: NIMH-PDSP radioligand binding assay, 5-HT4
T10 construct: NIMH-PDSP
Protocol: as §1

[17] = biological target: Beta Receptors; assay: NIMH-PDSP radioligand binding assay, Beta Receptors
[18] = biological target: T11, Alpha 2A (Homo sapiens, UniProt P08913); assay: NIMH-PDSP radioligand binding assay, Alpha 2A
T11 construct: NIMH-PDSP
T11 sequence (P08913 whole entry): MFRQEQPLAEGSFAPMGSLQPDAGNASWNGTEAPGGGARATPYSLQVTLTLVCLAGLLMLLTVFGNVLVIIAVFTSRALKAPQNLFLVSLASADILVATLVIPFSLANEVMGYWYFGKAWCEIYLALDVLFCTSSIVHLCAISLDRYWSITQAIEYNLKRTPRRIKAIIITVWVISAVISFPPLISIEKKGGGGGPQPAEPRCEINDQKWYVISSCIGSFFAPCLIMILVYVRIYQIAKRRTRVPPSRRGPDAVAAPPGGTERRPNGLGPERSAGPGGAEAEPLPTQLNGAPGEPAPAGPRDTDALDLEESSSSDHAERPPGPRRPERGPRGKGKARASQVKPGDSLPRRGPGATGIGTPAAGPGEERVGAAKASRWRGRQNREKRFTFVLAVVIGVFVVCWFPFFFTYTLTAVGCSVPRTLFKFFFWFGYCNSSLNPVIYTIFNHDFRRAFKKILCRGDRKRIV

[19] = biological target: T12, 5-HT1E (Homo sapiens, UniProt P28566); assay: NIMH-PDSP radioligand binding assay, 5-HT1E
T12 construct: NIMH-PDSP
Protocol: as §1

[20] = biological target: T13, D3R (Homo sapiens, UniProt P35462); assay: NIMH-PDSP radioligand binding assay, D3R
T13 construct: NIMH-PDSP
Protocol: as §1

[21] = biological target: T14, 5-HT6 (Homo sapiens, UniProt P50406); assay: NIMH-PDSP radioligand binding assay, 5-HT6
T14 construct: NIMH-PDSP
T14 sequence (P50406 whole entry, species assumed): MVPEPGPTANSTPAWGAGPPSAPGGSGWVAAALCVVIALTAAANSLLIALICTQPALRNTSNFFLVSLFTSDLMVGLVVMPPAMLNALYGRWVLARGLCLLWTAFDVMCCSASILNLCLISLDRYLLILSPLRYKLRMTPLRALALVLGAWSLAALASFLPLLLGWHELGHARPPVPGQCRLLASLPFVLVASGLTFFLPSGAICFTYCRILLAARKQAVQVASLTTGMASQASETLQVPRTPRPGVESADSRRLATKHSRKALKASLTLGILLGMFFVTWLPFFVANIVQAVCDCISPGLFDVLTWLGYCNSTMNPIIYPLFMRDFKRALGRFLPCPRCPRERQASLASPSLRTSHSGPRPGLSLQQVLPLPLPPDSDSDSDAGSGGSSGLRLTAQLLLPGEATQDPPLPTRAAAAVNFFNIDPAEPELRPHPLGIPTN
Protocol: as §1

[22] = biological target: T15, Alpha1B (Homo sapiens, UniProt P35368); assay: NIMH-PDSP radioligand binding assay, Alpha1B
T15 construct: NIMH-PDSP
T15 sequence (P35368 whole entry): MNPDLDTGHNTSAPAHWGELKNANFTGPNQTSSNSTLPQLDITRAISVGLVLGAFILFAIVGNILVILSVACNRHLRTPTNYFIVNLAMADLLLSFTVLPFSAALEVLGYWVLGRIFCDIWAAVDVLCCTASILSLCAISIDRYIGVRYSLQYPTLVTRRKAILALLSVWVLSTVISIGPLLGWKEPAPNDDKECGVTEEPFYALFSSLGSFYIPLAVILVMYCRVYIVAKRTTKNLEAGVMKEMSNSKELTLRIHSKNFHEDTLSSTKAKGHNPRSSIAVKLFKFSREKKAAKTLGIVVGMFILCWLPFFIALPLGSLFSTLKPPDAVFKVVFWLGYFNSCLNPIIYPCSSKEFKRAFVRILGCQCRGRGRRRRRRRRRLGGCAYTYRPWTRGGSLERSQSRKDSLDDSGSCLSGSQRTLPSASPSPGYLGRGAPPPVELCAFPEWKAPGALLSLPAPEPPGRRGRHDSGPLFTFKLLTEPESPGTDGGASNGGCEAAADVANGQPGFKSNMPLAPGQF

[23] = biological target: DOR, KOR, MOR; assay: NIMH-PDSP radioligand binding assay, DOR, KOR, MOR
[24] = biological target: T16, D2R (Homo sapiens, UniProt P14416); assay: NIMH-PDSP radioligand binding assay, D2R
T16 construct: NIMH-PDSP
T16 sequence (P14416 whole entry): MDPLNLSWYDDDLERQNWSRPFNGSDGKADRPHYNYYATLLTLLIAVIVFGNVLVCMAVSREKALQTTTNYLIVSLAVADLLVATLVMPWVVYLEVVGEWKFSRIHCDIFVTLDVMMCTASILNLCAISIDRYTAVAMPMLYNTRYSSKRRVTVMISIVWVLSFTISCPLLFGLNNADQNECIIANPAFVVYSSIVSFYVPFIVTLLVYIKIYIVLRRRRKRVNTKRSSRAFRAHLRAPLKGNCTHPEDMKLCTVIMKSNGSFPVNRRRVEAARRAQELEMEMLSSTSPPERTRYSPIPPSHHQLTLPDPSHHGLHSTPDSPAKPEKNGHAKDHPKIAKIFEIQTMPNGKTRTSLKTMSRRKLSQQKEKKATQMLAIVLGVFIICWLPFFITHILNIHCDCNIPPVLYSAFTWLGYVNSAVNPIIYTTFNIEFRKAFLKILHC

[25] = biological target: T17, Alpha2C (Homo sapiens, UniProt P18825); assay: NIMH-PDSP radioligand binding assay, Alpha2C
T17 construct: NIMH-PDSP

[26] = biological target: T18, 5-HT1A receptor (Homo sapiens, UniProt P08908); assay: Competition binding with [^3H]WAY100635 at 5-HT1A receptors (NIMH-PDSP); conditions: for Ki: competition with [^3H]WAY100635, 12 concentrations (10 μM to 1 pM), triplicate, cells expressing 5-HT1A receptor; for Binding affinity ratios of 5-HT1A and α1-adrenergic receptors: in vitro Ki ratio
T18 sequence (P08908 1-422): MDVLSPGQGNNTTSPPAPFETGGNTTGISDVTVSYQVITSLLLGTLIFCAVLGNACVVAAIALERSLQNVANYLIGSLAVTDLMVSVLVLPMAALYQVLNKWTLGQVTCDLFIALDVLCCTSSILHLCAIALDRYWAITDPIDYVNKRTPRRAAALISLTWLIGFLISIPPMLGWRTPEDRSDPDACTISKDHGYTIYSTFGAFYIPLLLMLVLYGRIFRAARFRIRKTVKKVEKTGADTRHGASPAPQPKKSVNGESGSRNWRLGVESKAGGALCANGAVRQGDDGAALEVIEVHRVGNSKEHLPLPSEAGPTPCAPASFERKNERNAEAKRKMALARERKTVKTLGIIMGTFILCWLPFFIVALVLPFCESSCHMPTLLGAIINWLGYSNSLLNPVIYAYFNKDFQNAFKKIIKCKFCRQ

Chain of DAT (Q01959 whole entry, species assumed): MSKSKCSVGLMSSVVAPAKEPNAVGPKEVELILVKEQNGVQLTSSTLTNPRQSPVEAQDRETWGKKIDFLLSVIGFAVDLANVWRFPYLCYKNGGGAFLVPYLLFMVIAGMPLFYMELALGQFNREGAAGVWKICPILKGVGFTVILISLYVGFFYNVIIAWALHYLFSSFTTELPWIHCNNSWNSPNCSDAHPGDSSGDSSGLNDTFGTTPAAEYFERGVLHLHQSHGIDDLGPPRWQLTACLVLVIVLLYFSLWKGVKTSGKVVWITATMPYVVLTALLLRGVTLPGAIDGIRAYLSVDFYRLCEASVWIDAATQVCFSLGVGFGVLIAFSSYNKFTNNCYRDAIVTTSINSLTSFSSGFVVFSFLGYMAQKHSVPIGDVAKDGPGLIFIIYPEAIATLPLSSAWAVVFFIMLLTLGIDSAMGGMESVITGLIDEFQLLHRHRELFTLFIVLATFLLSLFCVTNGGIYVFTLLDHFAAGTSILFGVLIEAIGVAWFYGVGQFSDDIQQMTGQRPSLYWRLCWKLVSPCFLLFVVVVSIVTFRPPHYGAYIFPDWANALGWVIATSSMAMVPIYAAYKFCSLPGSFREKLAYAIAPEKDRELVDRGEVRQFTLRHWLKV
T1 sequence (P25100 whole entry): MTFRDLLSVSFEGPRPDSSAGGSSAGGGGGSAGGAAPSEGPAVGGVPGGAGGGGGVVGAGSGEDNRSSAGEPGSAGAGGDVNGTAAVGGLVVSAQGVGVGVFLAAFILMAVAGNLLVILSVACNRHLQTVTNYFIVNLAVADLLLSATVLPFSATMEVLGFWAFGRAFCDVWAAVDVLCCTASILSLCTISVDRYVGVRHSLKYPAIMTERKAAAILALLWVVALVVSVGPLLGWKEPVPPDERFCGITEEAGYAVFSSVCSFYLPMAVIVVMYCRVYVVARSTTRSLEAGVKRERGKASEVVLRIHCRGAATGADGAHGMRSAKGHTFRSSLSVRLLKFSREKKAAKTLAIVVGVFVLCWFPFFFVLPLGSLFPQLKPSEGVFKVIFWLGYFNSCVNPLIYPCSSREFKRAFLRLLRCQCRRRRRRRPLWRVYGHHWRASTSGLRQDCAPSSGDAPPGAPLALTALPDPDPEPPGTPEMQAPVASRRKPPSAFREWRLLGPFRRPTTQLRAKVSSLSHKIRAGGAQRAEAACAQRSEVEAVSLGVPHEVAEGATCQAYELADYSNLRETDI

| SMILES | Ki [1] [µM] | Ki [2] [µM] | affinity to 5-HT2A [3] | Ki [4] [µM] | Ki [5] [µM] | Ki [6] [µM] | Ki [7] [µM] | Ki [8] [µM] | Ki [9] [µM] | Ki [10] [µM] | Ki [11] [µM] | Ki [12] [µM] | Ki [13] [µM] | Ki [14] [µM] | Ki [15] [µM] | Ki [16] [µM] | Ki [17] [µM] | Ki [18] [µM] | Ki [19] [µM] | Ki [20] [µM] | other results |
| --- | --- | --- | --- | --- | --- | --- | --- | --- | --- | --- | --- | --- | --- | --- | --- | --- | --- | --- | --- | --- | --- |
| COc1ccccc1N1CCN(CCCN/C(=N\C#N)c2ccccn2)CC1 [Compound 1] | 0.213 | > 10 | high affinities | > 10 | > 10 | > 10 | 0.137 | > 10 | > 10 | > 10 | > 10 | > 10 | 0.67 | 0.129 | > 10 | > 10 | > 10 | 0.453 | > 10 | 0.369 | Ki [21]: > 10 µM; Ki [22]: 1.08 µM; Ki [23]: > 10 µM; Ki [24]: 0.777 µM; Ki [25]: 0.835 µM; Ki [26]: 0.022 µM; Binding affinity ratios of 5-HT1A and α1-adrenergic receptors [26]: ~ 6 |
| COc1ccccc1N1CCN(CCNC(=O)c2ccccn2)CC1 [Compound 2] | 0.053 | > 10 | high affinities | > 10 | > 10 | > 10 | 0.088 | > 10 | > 10 | > 10 | > 10 | > 10 | > 10 | 0.046 | > 10 | > 10 | > 10 | > 10 | > 10 | 2.55 | Ki [21]: > 10 µM; Ki [22]: 0.254 µM; Ki [23]: > 10 µM; Ki [24]: > 10 µM; Ki [25]: > 10 µM; Ki [26]: 0.0077 µM; Binding affinity ratios of 5-HT1A and α1-adrenergic receptors [26]: ~ 6 |
